Measured values taken from patent publication US6800418B2, “Fluorine-containing photosensitive polymer having hydrate structure and resist composition comprising the same” (Samsung Electronics, priority 2001, dated 2004).

experiment: Measurement of pKa Value; type: physicochemical; details: pKa value of monomers, measured to identify whether the structure is dissolvable in developers
Procedure: To determine whether a repeating monomer unit of a polymer according to the present invention has a structure dissolvable in common developers, pKa value was measured.
The pKa value was measured for a variety of monomers having different structures to identify whether hydrate is dissolvable in developers.

| SMILES | pKa |
| --- | --- |
| C=Cc1ccc(O)cc1 [MONOMER 2, vinylphenol] | 9.97 |
| C=C(C)C(=O)O [MONOMER 3] | 4.58 |
| C=Cc1ccc(C(O)(C(F)(F)F)C(F)(F)F)cc1 [MONOMER 5] | 8.96 |
| OC(C1CC2C=CC1C2)C(F)(F)C(O)(O)C(F)(F)F (centres unmarked) [MONOMER 6] | 8.33 |
| OC(CC1CC2C=CC1C2)(C(F)(F)F)C(F)(F)F (centres unmarked) [MONOMER 4] | 9.67 |
